Measured values: publication PMC10974084, “Combination of Betulinic Acid Fragments and Carbonic Anhydrase Inhibitors—A New Drug Targeting Approach” (Pharmaceutics, 2024)
Like-named read-outs stand apart in the source and are kept apart here.

Experiments:
[1] = tested on: A375 melanoma cells; assay: SRB cytotoxicity assay, A375; assay type: cell-based; conditions: Homo sapiens, read-out: IC50 A375
Procedure: (§1) All of the compounds were dissolved in dimethyl sulfoxide (DMSO) to achieve a 20 mM stock solution. Cells were seeded in cell culture flasks 24 h before treatment. The treatment was performed for 24 h.
(§2) The cytotoxicity of the drugs was determined in 2D tumor models using sulforhodamine B (SRB) assays. Treatment started 24 h after seeding the tumor cells in 96-well plates as previously described.

[2] = tested on: MCF-7 breast cancer cells; assay: SRB cytotoxicity assay, MCF-7; assay type: cell-based; conditions: Homo sapiens, read-out: IC50 MCF-7
Procedure: as §1, §2

[3] = tested on: tumor cell lines (2D and 3D tumor models); assay: Cytotoxicity summarised across tumor models; assay type: cell-based; conditions: Homo sapiens
Procedure: as §2
(§3) To determine cytotoxicity in the 3D tumor models, spheroid cytotoxicity assays were performed as previously described. The luciferase-expressing, breast cancer cell lines MDA-MB-231 and Hs578T and derived spheroids were cultivated in RPMI medium (Sigma-Aldrich, Taufkirchen, Germany) containing 10% fetal bovine serum (BioWest, Nuaillé, France) and 10% penicillin/streptomycin (Sigma-Aldrich) at 37 °C/5% CO2 in a humid atmosphere. For generation of single tumor spheroids, tumor cells resuspended in culture medium were seeded into 96-well plates, which were coated before with 0.7% agarose (SeaKem® GTG™ Agarose, Lonza, Basel, Switzerland). After the formation of spheroids (48 h), they were treated with serial dilutions of compounds. Measurements of luciferase activity were performed on day 7, after supplementation with D-luciferin (Perkin Elmer, Rodgau, Germany), on a Tecan Spark microplate reader (Tecan, Männedorf, Switzerland). Generation of dose-response curves and calculation of IC50 values including standard deviations were accomplished using GraphPad Prism8.

[4] = tested on: A375 cells; assay: Cell cycle analysis, A375; assay type: cell-based, human; conditions: double the IC50 concentration
Procedure: (§4) Cell cycle analyses were performed as previously described.
(§5) Changes in the genetic material and the resulting mutations, which can affect the formation of tumors, usually occur during the proliferation process in the cell. A human cell passes through all four phases of this cell cycle within 20 h, with the set of its chromosomes varying between single and double. During apoptosis, fragmentation of DNA occurs along with an associated decrease in chromosome content. Fixation of cells with ethanol leads to permeabilization of the cell membrane and thus to loss of smaller DNA fragments, so that apoptotic cells contain less than the single set of chromosomes detected by a SubG1 peak. Given the different amounts of DNA in the cells and the proportional binding of propidium iodide to the DNA, the different fluorescence intensities can be used to infer the distribution of cells in the respective phases of the cell cycle.
In addition, after 48 h of treatment, there was a decrease in the S and M phases for all treatments, which is similar to that noted after 24 h. […] As in the 24 and 48 h tests, there was a decrease in M- and S-phase cells and an increase in G1/G0 phase cells after 72 h compared with the untreated control. Several independent experiments by different groups show similar results with MCF-7 [42, 43, 44]. Due to a lack of DNA fragmentation in MCF-7 cells, the human melanoma cell line A375 was used as a second cell line for comparison (Figure 4d). […] The effect of compound 3 is even more pronounced with an incubation time of 48 or 72 h. An increase in the SubG1 peak was observed from 0.7% in the control to up to 60% after 72 h of treatment.

[5] = tested on: MCF-7 cells; assay: Annexin V / propidium iodide assay, MCF-7; assay type: cell-based, human; conditions: double the IC50 concentration
Procedure: The Annexin V assays were performed as previously described.
Compounds 3, 5, and 9 were used to study cell death mechanisms and cell cycle analysis. A feature that can be used as it is only characteristic of apoptotic but not necrotic cells is Annexin V staining. During apoptosis, in addition to cell shrinkage, chromatin condensation, and the formation of apoptotic bodies, phosphatidylserine, which is originally inside the membrane, is translocated to the outside. There is a rapid change in phospholipid symmetry in the cell membrane, a process occurring so rapidly that the barrier function of the cell membrane is initially still present. The cellular protein Annexin V can bind to the displaced phosphatidylserine in the presence of calcium. To test for the presence of the cell membrane barrier, the non-membrane-permeable dye propidium iodide was added, which intercalates into the DNA. The flow cytometric data were divided into four areas (live cells, early and late apoptotic cells, and necrotic cells). Untreated cells were used as controls. The results are depicted in Figure 3. […] Even after 48 h, no significant difference between compound 3 and 5 was detected (55–60% live cells, 8% early apoptotic cells, 28–36% late apoptotic cells, 0.5–3% necrotic cells). […] Since both compounds are sulfonamides of betulin, the similar results are not surprising.

[6] = target: recombinant human carbonic anhydrase IX (Homo sapiens, UniProt Q16790); assay: hCA IX esterase assay with p-nitrophenyl acetate; conditions: for Ki relative to the unconjugated inhibitors: higher Ki than unconjugated inhibitors
Procedure: In this measurement, the enzymatically catalyzed hydrolysis of p-nitrophenyl acetate to p-nitrophenol was investigated. […] This was followed by measurement of the v-S-characteristics with inhibitor. […] For each run, 2 experimental series (biological replicate) were prepared simultaneously and measured for 10 min at a measurement interval of 8 s, also as a two-fold determination (technical replicate). […] The resulting reaction velocities, calculated from a calibration curve with p-nitrophenole under the same conditions, were plotted against the substrate concentration. The kinetic evaluation for competitive inhibition was then performed with the program GraphPad Prism.

[7] = tested on: MCF-7 cells; assay: Cell cycle analysis, MCF-7; assay type: cell-based, human; conditions: double the IC50 concentration
Procedure: as §4, §5
The MCF-7 breast cancer cell line was used in the experiments. An untreated sample was also included in the cell cycle analysis as a control. The results are depicted in Figure 4.

[8] = tested on: A2780 ovarian cancer cells; assay: SRB cytotoxicity assay, A2780; assay type: cell-based; conditions: Homo sapiens, read-out: IC50 A2780
Procedure: as §1, §2

[9] = tested on: MDA-MB-231 spheroids; assay: Spheroid cytotoxicity assay (luciferase), MDA-MB-231; assay type: cell-based, human; conditions: Homo sapiens, MDA-MB-231, 168 h, read-out: IC50 MDA-MB-231 spheroids
Procedure: as §3, with “The luciferase-expressing, breast cancer cell lines MDA-MB-231 and Hs578T and derived spheroids were cultivated in RPMI medium (Sigma-Aldrich, Taufkirchen, Germany) containing 10% fetal bovine serum (BioWest, Nuaillé, France) and 10% penicillin/streptomycin (Sigma-Aldrich) at 37 °C/5% CO2 in a humid atmosphere.” left out
(§6) Since the tumor cells stably express luciferase, analysis of spheroid growth and response to therapy is accomplished by measurement of bioluminescent signal intensity.

[10] = tested on: Hs578T spheroids; assay: Spheroid cytotoxicity assay (luciferase), Hs578T; assay type: cell-based, human; conditions: for IC50: Homo sapiens, Hs-578T, 168 h, read-out: IC50 Hs578T spheroids
Procedure: as §3, with “The luciferase-expressing, breast cancer cell lines MDA-MB-231 and Hs578T and derived spheroids were cultivated in RPMI medium (Sigma-Aldrich, Taufkirchen, Germany) containing 10% fetal bovine serum (BioWest, Nuaillé, France) and 10% penicillin/streptomycin (Sigma-Aldrich) at 37 °C/5% CO2 in a humid atmosphere.” left out
as §6

[11] = A-375, SRB assay, 96 h incubation, mean ± SD
[12] = MCF7, SRB assay, 96 h incubation, mean ± SD
[13] = SRB assays, A375, MCF-7, A2780, read-out: IC50 values (range over cell lines of Table 1)
[14] = read-out: cytotoxicity range in 2D and 3D tumor models
[15] = A2780, SRB assay, 96 h incubation, mean ± SD
[16] = 7 days of treatment, 3 independent experiments

Row | Compound | IC50 [1, 11] [µM] | IC50 [2, 12] [µM] | IC50 [3, 13] [µM] | IC50 [3, 14] [µM] | late apoptotic cells ([5]; MCF-7, 24 h) [%] | early apoptotic cells ([5]; MCF-7, 48 h) [%] | Ki [6] [µM] | Ki relative to the unconjugated inhibitors [6] | cells in SubG1 phase ([7]; MCF-7, 72 h) [%] | IC50 [8, 15] [µM] | other results
1 | C=C(C)C1CCC2(C(=O)NCCS(N)(=O)=O)CCC3(C)C(CCC4C5(C)CCC(OC(C)=O)C(C)(C)C5CCC43C)C12 (stereo not drawn) [Compound 3, (3β)-28-{[2-(Aminosulfonyl)-ethyl]-amino}28-oxolup-20(29)-en-3-yl Acetate] | 6.4 ± 0.7 | 7.5 ± 0.7 | 6.4 to 11.4 | 6.4 to 30.1 | 16 | 8 | 1.04 ± 0.39 | approximately 10 fold | 8.1 | 10.4 ± 0.8 | cells in G1/G0 phase ([4]; A375, 24 h): 46.9%; cells in M phase ([4]; A375, 24 h): 15.8%; cells in S phase ([4]; A375, 24 h): 21.2%; cells in SubG1 phase ([4]; A375, 24 h): 11.9%; SubG1 peak ([4]; A375, 72 h, control 0.7%): up to 60%; early apoptotic cells ([5]; MCF-7, 72 h): 9%; late apoptotic cells ([5]; MCF-7, 72 h): 53%; live cells ([5]; MCF-7, 72 h): 34%; necrotic cells ([5]; MCF-7, 72 h): 4.5%
2 | C=C(C)C1CCC2(COC(=O)CCC(=O)O)CCC3(C)C(CCC4C5(C)CCC(OC(C)=O)C(C)(C)C5CCC43C)C12 (stereo not drawn) [Compound 4, 4-{[(3beta)-3-(Acetyloxy)-lup-20(29)-en-28-yl]-oxy}-4-oxobutanoic Acid] | 12.1 ± 1.5 | 9.8 ± 0.6 | – | – | – | – | – | – | – | 12.3 ± 3.9 | melting point: 122 to 125 °C
3 | C=C(C)C1CCC2(COC(=O)CCC(=O)NCCS(N)(=O)=O)CCC3(C)C(CCC4C5(C)CCC(OC(C)=O)C(C)(C)C5CCC43C)C12 (stereo not drawn) [Compound 5, (3β)-3-(Acetyloxy)-lup-20(29)-en-28-yl 4-{[2-(aminosulfonyl)-ethyl]amino}-4-oxobutanoate] | 9.4 ± 0.5 | 8.6 ± 0.7 | 6.4 to 11.4 | 6.4 to 30.1 | 16 | 8 | 1.1 ± 0.31 | approximately 10 fold | 12.1 | 11.4 ± 1.4 | IC50 [9, 16]: 10.3 ± 2.7 µM; IC50 [10, 16]: 30.1 ± 0.7 µM; resistance of Hs578T spheroids versus MDA-MB-231 spheroids ([10]; difference of spheroid IC50 values): only about three-fold differences; effect on cell viability (Annexin V) ([5]; MCF-7, 72 h): comparably strong effect; cells in G1/G0 phase ([7]; MCF-7, 48 h): 83.9%; cells in M phase ([7]; MCF-7, 48 h): 5.8%; cells in S phase ([7]; MCF-7, 48 h): 1.8%; cells in SubG1 phase ([7]; MCF-7, 48 h): 8.1%
4 | Nc1nnc(S(N)(=O)=O)s1 [Compound 6, 5-Amino-1,3.4-thiadiazole-2-sulfonamide] | > 100 | > 100 | – | – | – | – | – | – | – | > 100 | –
5 | NS(=O)(=O)c1nnc(NC(=O)CCC(=O)O)s1 [Compound 7, 4 {[5-(Amino sulfonyl)-1,3,4-thiadiazol-2-yl]-amino}-4-oxobutanoic Acid] | – | – | – | – | – | – | – | – | – | – | IC50 ([1]; A-375, 96 h): > 100 µM; IC50 [9]: > 100 µM; IC50 ([2]; MCF7, 96 h): > 100 µM; IC50 [10]: > 100 µM; IC50 ([8]; A2780, 96 h): > 100 µM
